Laboratory results from PubChem BioAssay AID1963864 (Molecular Pharmacology Branch, DTP, NCI, 2024).

Test system: KRAS PDC multicell spheroid viability
Experiment: Anticancer human tumor 521955-158-R6-J3-PDC patient-derived pancreatic carcinoma cell line growth inhibition [KRAS2]
Settings: for viability, T/C: stronger effect = lower value
Method in brief: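 KRAS-mutant tumor cells were grown as spheroids with HUVEC endothelial cells and human MSCs as stroma. Targeted agents were tested alone and with KRAS pathway inhibitors. Doses started at or near clinical Cmax, or 10 microM, descending half-log.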

[1] = curve of first compound, second compound 0.1 µM
[2] = curve of first compound, second compound 0.316 µM
[3] = curve of first compound, second compound 1 µM
[4] = curve of first compound, second compound 3.16 µM
[5] = second compound 0.1 µM, first compound 0.0316 µM
[6] = second compound 0.1 µM, first compound 0.1 µM
[7] = second compound 0.316 µM, first compound 0.0316 µM
[8] = second compound 0.316 µM, first compound 0.1 µM
[9] = second compound 1 µM, first compound 0.0316 µM
[10] = second compound 1 µM, first compound 0.1 µM
[11] = second compound 3.16 µM, first compound 0.0316 µM
[12] = second compound 3.16 µM, first compound 0.1 µM
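Further: drug exposure lasted seven days.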
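Wherever viability, T/C is given: 100% = DMSO vehicle wells and lower means fewer viable cells.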

Compound: CCNC(=O)CC1N=C(c2ccc(Cl)cc2)c2cc(OC)ccc2-n2c(C)nnc21 (stereo not given) + CC1OCC2(CCN(c3cnc(Sc4ccnc(N)c4Cl)c(N)n3)CC2)C1N
- IC50 [1]: > 10000 nM
- IC50 [2]: > 10000 nM
- IC50 [3]: > 10000 nM
- IC50 [4]: > 10000 nM
- IC50 (curve of first compound, second compound 10 µM): 1070 nM
- viability, T/C [5]: 84.1%
- viability, T/C [6]: 83.5%
- viability, T/C (second compound 0.1 µM, first compound 0.316 µM): 58.9%
- viability, T/C (second compound 0.1 µM, first compound 1 µM): 73.5%
- viability, T/C (second compound 0.1 µM, first compound 3.16 µM): 62.6%
- viability, T/C (second compound 0.1 µM, first compound 10 µM): 73.3%
- viability, T/C [7]: 102%
- viability, T/C [8]: 90.3%
- viability, T/C (second compound 0.316 µM, first compound 0.316 µM): 69.3%
- viability, T/C (second compound 0.316 µM, first compound 1 µM): 68.1%
- viability, T/C (second compound 0.316 µM, first compound 3.16 µM): 56.4%
- viability, T/C (second compound 0.316 µM, first compound 10 µM): 62.2%
- viability, T/C [9]: 99.5%
- viability, T/C [10]: 86.6%
- viability, T/C (second compound 1 µM, first compound 0.316 µM): 70.8%
- viability, T/C (second compound 1 µM, first compound 1 µM): 65.9%
- viability, T/C (second compound 1 µM, first compound 3.16 µM): 56.4%
- viability, T/C (second compound 1 µM, first compound 10 µM): 59.8%
- viability, T/C [11]: 106%
- viability, T/C [12]: 103%
- viability, T/C (second compound 3.16 µM, first compound 0.316 µM): 77%
- viability, T/C (second compound 3.16 µM, first compound 1 µM): 62.6%
- viability, T/C (second compound 3.16 µM, first compound 3.16 µM): 58%
- viability, T/C (second compound 3.16 µM, first compound 10 µM): 53.3%
- viability, T/C (second compound 10 µM, first compound 0.0316 µM): 115%
- viability, T/C (second compound 10 µM, first compound 0.1 µM): 105%
- viability, T/C (second compound 10 µM, first compound 0.316 µM): 76.4%
- viability, T/C (second compound 10 µM, first compound 1 µM): 50%
- viability, T/C (second compound 10 µM, first compound 3.16 µM): 43.2%
- viability, T/C (second compound 10 µM, first compound 10 µM): 43%

Compound: CC(=O)Nc1cccc(-n2c(=O)n(C3CC3)c(=O)c3c(Nc4ccc(I)cc4F)n(C)c(=O)c(C)c32)c1
- viability, T/C (compound 0.0001 µM): 95.7% [middle of 5 runs]
- viability, T/C (compound 0.000316 µM): 99.3% [middle of 5 runs]
- viability, T/C (compound 0.00316 µM): 85.6% [middle of 5 runs]
- viability, T/C (compound 0.01 µM): 72.2% [middle of 5 runs]
- viability, T/C (compound 0.0316 µM): 44% [middle of 5 runs]

Compound: Cn1ncnc1[C@H]1c2n[nH]c(=O)c3cc(F)cc(c23)N[C@@H]1c1ccc(F)cc1 + C=CC(=O)N1CCN(c2nc(OCC3CCCN3C)nc3c2CCN(c2cccc4cccc(C)c24)C3)CC1CC#N
- IC50 (curve of first compound, second compound 0.0316 µM): > 100 nM
- IC50 [1]: > 100 nM
- IC50 [2]: > 100 nM
- IC50 [3]: > 100 nM
- IC50 [4]: < 0.316 nM
- viability, T/C (second compound 0.0316 µM, first compound 0.000316 µM): 100%
- viability, T/C (second compound 0.0316 µM, first compound 0.001 µM): 100%
- viability, T/C (second compound 0.0316 µM, first compound 0.00316 µM): 98.1%
- viability, T/C (second compound 0.0316 µM, first compound 0.01 µM): 105%
- viability, T/C (second compound 0.0316 µM, first compound 0.0316 µM): 97%
- viability, T/C (second compound 0.0316 µM, first compound 0.1 µM): 90.8%
- viability, T/C (second compound 0.1 µM, first compound 0.000316 µM): 94.2%
- viability, T/C (second compound 0.1 µM, first compound 0.001 µM): 94.5%
- viability, T/C (second compound 0.1 µM, first compound 0.00316 µM): 104%
- viability, T/C (second compound 0.1 µM, first compound 0.01 µM): 91.9%
- viability, T/C [5]: 98.9%
- viability, T/C [6]: 89.4%
- viability, T/C (second compound 0.316 µM, first compound 0.000316 µM): 94.1%
- viability, T/C (second compound 0.316 µM, first compound 0.001 µM): 89.9%
- viability, T/C (second compound 0.316 µM, first compound 0.00316 µM): 95.1%
- viability, T/C (second compound 0.316 µM, first compound 0.01 µM): 88.4%
- viability, T/C [7]: 92.2%
- viability, T/C [8]: 91%
- viability, T/C (second compound 1 µM, first compound 0.000316 µM): 83.8%
- viability, T/C (second compound 1 µM, first compound 0.001 µM): 78.6%
- viability, T/C (second compound 1 µM, first compound 0.00316 µM): 88.3%
- viability, T/C (second compound 1 µM, first compound 0.01 µM): 91.7%
- viability, T/C [9]: 78.6%
- viability, T/C [10]: 85.4%
- viability, T/C (second compound 3.16 µM, first compound 0.000316 µM): 50.4%
- viability, T/C (second compound 3.16 µM, first compound 0.001 µM): 43.3%
- viability, T/C (second compound 3.16 µM, first compound 0.00316 µM): 53.2%
- viability, T/C (second compound 3.16 µM, first compound 0.01 µM): 54.5%
- viability, T/C [11]: 52.6%
- viability, T/C [12]: 53.6%

Compound: COc1cc(Nc2ncc3c(n2)-c2ccc(Cl)cc2C(c2c(F)cccc2OC)=NC3)ccc1C(=O)O
- viability, T/C (compound 0.0316 µM): 93.8% [middle of 5 runs]
- viability, T/C (compound 0.1 µM): 90.8% [middle of 5 runs]
- viability, T/C (compound 0.316 µM): 96.9% [middle of 5 runs]
- viability, T/C (compound 1 µM): 90.7% [middle of 5 runs]
- IC50 (curve of compound): > 10000 nM
